Assay results published in patent publication US7932246B2, “Histone deacetylase inhibitors” (Chroma Therapeutics Ltd., priority 2005, dated 2011).

Legend:
[1] = molecular target: histone deacetylase activity (HeLa nuclear extract); test: HDAC fluorescent activity assay (Biomol, Fluor de Lys substrate); type: biochemical; conditions: IC50 range
Method in brief: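 HeLa nuclear extract served as the deacetylase source for the acetyl-lysine Fluor de Lys substrate, with or without inhibitor. Developer converts deacetylated substrate to a fluorophore.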

[2] = tested on: HeLa cells; test: HeLa cell inhibition assay (SRB cell viability); type: cell-based; conditions: Homo sapiens, HeLa, 72 h, IC50 range
Method in brief: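 Log-phase cells seeded at 1000 cells/well, grown 24 h, then exposed to compound (final 20 μM top concentration) for 72 h. Viability by sulphorhodamine B staining, % inhibition relative to DMSO control. IC50 from 8-point sigmoidal variable-slope fit.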

[3] = tested on: U937; test: U937 cell inhibition assay (WST-1 cell viability); type: cell-based; conditions: Homo sapiens, U-937; U937 cells, 72-96 h, WST-1 assay, IC50 range
Method in brief: (§1)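 Cells seeded at 1000-2000/well, grown 24 h, then treated for 72-96 h with 8 concentrations (top 10 μM, 3-fold, 6 replicates). Viability by WST-1; inhibition relative to DMSO, IC50 by sigmoidal variable-slope fit.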

[4] = tested on: HUT; test: HUT cell inhibition assay (WST-1 cell viability); type: cell-based; conditions: HUT cells, 72-96 h, WST-1 assay, IC50 range
Method in brief: as §1

O=C(NO)c1cnc(N2CC3C(C2)C3NS(=O)(=O)c2cc(C(F)(F)F)cc(C(F)(F)F)c2)nc1 (stereo not shown) [Example 3, N-Hydroxy 2-(6-{[(3,5-bistrifluoromethylphenyl)sulfonyl]amino}-3-azabicyclo[3.1.0]hex-3-1/1)pyrimidine-5-carboxamide]
IC50 [1]: < 100 nM | IC50 [2]: 331 to 3300 nM | IC50 [3]: < 330 nM | IC50 [4]: < 330 nM

CC(CNC1C2CN(c3ncc(C(=O)NO)cn3)CC21)c1ccccc1 (stereo not shown) [Example 24, N-Hydroxy 2-{6-[(2-phenylpropyl)amino]-3-azabicyclo[3.1.0]hex-3-yl}pyrimidine-5-carboxamide]
IC50 [1]: < 100 nM | IC50 [2]: 331 to 3300 nM | IC50 [3]: < 330 nM | IC50 [4]: < 330 nM

O=C(NO)c1cnc(N2CC3C(C2)C3NCCC(c2ccccc2)c2ccccc2)nc1 (stereo not shown) [Example 39, N-Hydroxy 2-[6-(3,3-diphenylpropylamino)-3-azabicyclo[3.1.0]hex-3-yl]pyrimidine-5-carboxamide]
IC50 [1]: < 100 nM | IC50 [2]: 331 to 3300 nM | IC50 [3]: < 330 nM | IC50 [4]: < 330 nM

O=C(NO)c1cnc(N2CC3C(C2)C3NCc2ccc(F)cc2)nc1 (stereo not shown) [Example 41, N-Hydroxy 2-{6-[(4-fluorobenzyl)amino]-3-azabicyclo[3.1.0]hex-3-yl}pyrimidine-5-carboxamide]
IC50 [1]: < 100 nM | IC50 [2]: 331 to 3300 nM | IC50 [3]: < 330 nM | IC50 [4]: < 330 nM

O=C(NO)c1cnc(N2CC3C(C2)C3Nc2ccc3ccccc3n2)nc1 (stereo not shown) [Example 67, N-Hydroxy 2-[6-(quinolin-2-ylamino)-3-azabicyclo[3.1.0]hex-3-yl]pyrimidine-5-carboxamide]
IC50 [1]: < 100 nM | IC50 [2]: 331 to 3300 nM | IC50 [3]: 331 to 3300 nM | IC50 [4]: < 330 nM

O=C(NO)c1cnc(N2CC3C(C2)C3NCc2ccc3ccccc3n2)nc1 (stereo not shown) [Example 43, N-Hydroxy 2-{6-[(quinolin-2-ylmethyl)amino]-3-azabicyclo[3.1.0]hex-3-yl}pyrimidine-5-carboxamide]
IC50 [1]: < 100 nM | IC50 [2]: < 330 nM | IC50 [3]: < 330 nM | IC50 [4]: < 330 nM

O=C(NO)c1cnc(N2CCC3(CC2)CCN(S(=O)(=O)c2ccc4ccccc4c2)CC3)nc1 [Example 86, N-Hydroxy 2-[9-(naphthalene-2-sulfonyl)-3,9-diaza-spiro[5.5]undec-3-yl]pyrimidine-5-carboxamide]
IC50 [1]: 101 to 1000 nM | IC50 [2]: > 3300 nM | IC50 [3]: 331 to 3300 nM | IC50 [4]: 331 to 3300 nM

O=C(NO)c1cnc(N2CC3C(C2)C3NCc2ccc3cc(F)ccc3n2)nc1 (stereo not shown) [Example 44, N-Hydroxy 2-(6-{[(6-fluoroquinolin-2-yl)methyl]amino}-3-azabicyclo[3.1.0]hex-3-yl)pyrimidine-5-carboxamide]
IC50 [1]: < 100 nM | IC50 [2]: < 330 nM | IC50 [3]: < 330 nM | IC50 [4]: < 330 nM

COc1ccc2c(c1)CCC2N1CC2CN(c3ncc(C(=O)NO)cn3)CC2C1 (stereo not shown) [Example 80, N-Hydroxy 2-[5-(5-methoxyindan-1-yl)hexahydropyrrolo[3,4-c]pyrrol-2(1H)-yl]pyrimidine-5-carboxamide]
IC50 [1]: < 100 nM | IC50 [2]: < 330 nM | IC50 [3]: 331 to 3300 nM | IC50 [4]: < 330 nM

O=C(NO)c1cnc(N2CC3C(C2)C3NCc2ccc(Cl)cc2)nc1 (stereo not shown) [Example 30, N-Hydroxy 2-{6-[(4-chlorobenzyl)amino]-3-azabicyclo[3.1.0]hex-3-yl}pyrimidine-5-carboxamide]
IC50 [1]: < 100 nM | IC50 [2]: < 330 nM | IC50 [3]: < 330 nM | IC50 [4]: < 330 nM

O=C(NO)c1cnc(N2CC3C(CNCc4ccc5ccccc5c4)C3C2)nc1 (stereo not shown) [Example 71, N-Hydroxy 2-{6-[(naphthalen-2-ylmethylamino)methyl]-3-azabicyclo[3.1.0]hex-3-yl}pyrimidine-5-carboxamide]
IC50 [1]: < 100 nM | IC50 [2]: 331 to 3300 nM | IC50 [3]: 331 to 3300 nM | IC50 [4]: < 330 nM

CC(C(=O)NC1C2CN(c3ncc(C(=O)NO)cn3)CC21)c1ccccc1 (stereo not shown) [Example 10, N-Hydroxy 2-{6-[(2-phenylpropanoyl)amino]-3-azabicyclo[3.1.0]hex-3-yl}pyrimidine-5-carboxamide]
IC50 [1]: < 100 nM | IC50 [2]: 331 to 3300 nM | IC50 [3]: 331 to 3300 nM | IC50 [4]: 331 to 3300 nM

O=C(NO)c1cnc(N2CC(NS(=O)(=O)c3ccc4ccccc4c3)C2)nc1 [Example 70, N-Hydroxy 2-{3-[(2-naphthylsulfonyl)amino]azetidin-1-yl}pyrimidine-5-carboxamide]
IC50 [1]: < 100 nM | IC50 [2]: > 3300 nM | IC50 [3]: > 3300 nM | IC50 [4]: 331 to 3300 nM

O=C(NO)c1cnc(N2CC3C(C2)C3NCc2ccc(OC(F)(F)F)cc2)nc1 (stereo not shown) [Example 34, N-Hydroxy 2-{6-[(4-trifluoromethoxybenzyl)amino]-3-azabicyclo[3.1.0]hex-3-yl}pyrimidine-5-carboxamide]
IC50 [1]: < 100 nM | IC50 [2]: 331 to 3300 nM | IC50 [3]: < 330 nM | IC50 [4]: < 330 nM

O=C(NO)c1cnc(N2CC3C(CNCc4ccccc4)C3C2)nc1 (stereo not shown) [Example 72, N-Hydroxy 2-{6-[(benzylamino)methyl]-3-azabicyclo[3.1.0]hex-3-yl}pyrimidine-5-carboxamide]
IC50 [1]: < 100 nM | IC50 [2]: 331 to 3300 nM | IC50 [3]: 331 to 3300 nM | IC50 [4]: < 330 nM

O=C(NO)c1cnc(N2CC3C(C2)C3N(CCN2CCCC2=O)S(=O)(=O)c2ccc(OC(F)(F)F)cc2)nc1 (stereo not shown) [Example 55, N-Hydroxy 2-{6-[[2-(2-oxopyrrolidin-1-yl)ethyl]-(4-trifluoromethoxybenzenesulfonyl)amino]-3-aza-bicyclo[3.1.0]hex-3-yl}pyrimidine-5-carboxamide]
IC50 [1]: < 100 nM | IC50 [2]: > 3300 nM | IC50 [3]: 331 to 3300 nM | IC50 [4]: 331 to 3300 nM

O=C(NO)c1cnc(N2CC3C(C2)C3NCc2ccc(C(F)(F)F)cc2)nc1 (stereo not shown) [Example 42]
IC50 [1]: < 100 nM | IC50 [2]: 331 to 3300 nM | IC50 [3]: 331 to 3300 nM | IC50 [4]: < 330 nM

O=C(Cc1ccsc1)NC1C2CN(c3ncc(C(=O)NO)cn3)CC21 (stereo not shown) [Example 11, N-Hydroxy 2-{6-[(thien-3-ylacetyl)amino]-3-azabicyclo[3.1.0]hex-3-yl}pyrimidine-5-carboxamide]
IC50 [1]: < 100 nM | IC50 [2]: 331 to 3300 nM | IC50 [3]: > 3300 nM | IC50 [4]: 331 to 3300 nM

O=C(NO)c1cnc(N2CC3C(C2)C3NCc2cc(F)cc(F)c2)nc1 (stereo not shown) [Example 28, N-Hydroxy 2-{6-[(3,5-difluorobenzyl)amino]-3-azabicyclo[3.1.0]hex-3-yl}pyrimidine-5-carboxamide]
IC50 [1]: < 100 nM | IC50 [2]: < 330 nM | IC50 [3]: < 330 nM | IC50 [4]: < 330 nM

O=C(NO)c1ccc(N2CC3CN(Cc4ccc5ccccc5c4)CC3C2)nc1 (stereo not shown) [Example 87]
IC50 [1]: < 100 nM | IC50 [2]: 331 to 3300 nM | IC50 [3]: 331 to 3300 nM | IC50 [4]: 331 to 3300 nM

O=C(NO)c1cnc(N2CC3C(C2)C3NC(=O)c2cccs2)nc1 (stereo not shown) [Example 18, N-Hydroxy 2-{6-[(thien-2-ylcarbonyl)amino]-3-azabicyclo[3.1.0]hex-3-yl}pyrimidine-5-carboxamide]
IC50 [1]: < 100 nM | IC50 [2]: > 3300 nM | IC50 [3]: > 3300 nM | IC50 [4]: 331 to 3300 nM

O=C(NO)c1cnc(N2CC3CN(C(=O)CCCOc4ccccc4)CC3C2)nc1 (stereo not shown) [Example 78, N-Hydroxy 2-[5-(4-phenoxybutyryl)hexahydropyrrolo[3,4-c]pyrrol-2(1H)-yl]pyrimidine-5-carboxamide]
IC50 [1]: < 100 nM | IC50 [2]: > 3300 nM | IC50 [3]: 331 to 3300 nM | IC50 [4]: 331 to 3300 nM

O=C(NO)c1cnc(N2CC3C(C2)C3N2CCCCC2)nc1 (stereo not shown) [Example 63, N-Hydroxy 2-(6-piperidin-1-yl-3-azabicyclo[3.1.0]hex-3-yl)pyrimidine-5-carboxamide]
IC50 [1]: 101 to 1000 nM | IC50 [2]: > 3300 nM | IC50 [3]: > 3300 nM | IC50 [4]: 331 to 3300 nM

O=C(NO)c1cnc(N2CC3C(C2)C3N2Cc3ccccc3CC2=O)nc1 (stereo not shown) [Example 65, N-Hydroxy 2-[6-(3-oxo-3,4-dihydroisoquinolin-2(1H)-yl)-3-azabicyclo[3.1.0]hex-3-yl]pyrimidine-5-carboxamide]
IC50 [1]: < 100 nM | IC50 [2]: 331 to 3300 nM | IC50 [3]: 331 to 3300 nM | IC50 [4]: 331 to 3300 nM

O=C(NO)c1cnc(N2CC3C(C2)C3N(CCN2CCCC2)S(=O)(=O)c2ccc3ccccc3c2)nc1 (stereo not shown) [Example 46, N-Hydroxy 2-{6-[(naphthalene-2-sulfonyl)-(2-pyrrolidin-1-yl-ethyl)amino]-3-azabicyclo[3.1.0]hex-3-yl}pyrimidine-5-carboxamide]
IC50 [1]: < 100 nM | IC50 [2]: < 330 nM | IC50 [3]: < 330 nM | IC50 [4]: < 330 nM

CN(C1C2CN(c3ncc(C(=O)NO)cn3)CC21)S(=O)(=O)c1ccc2ccccc2c1 (stereo not shown) [Example 45, N-Hydroxy 2-{6-[methyl(naphthalene-2-sulfonyl)-amino]-3-aza-bicyclo[3.1.0]hex-3-yl}pyrimidine-5-carboxamide]
IC50 [1]: < 100 nM | IC50 [2]: 331 to 3300 nM | IC50 [3]: 331 to 3300 nM | IC50 [4]: < 330 nM

O=C(NO)c1cnc(N2CC3C(C2)C3NCc2cc(C(F)(F)F)cc(C(F)(F)F)c2)nc1 (stereo not shown) [Example 35, N-Hydroxy 2-{6-[(3,5-bistrifluoromethylbenzyl)amino]-3-azabicyclo[3.1.0]hex-3-yl}pyrimidine-5-carboxamide]
IC50 [1]: < 100 nM | IC50 [2]: < 330 nM | IC50 [3]: < 330 nM | IC50 [4]: < 330 nM

O=C(CCCCc1ccccc1)NC1C2CN(c3ncc(C(=O)NO)cn3)CC21 (stereo not shown) [Example 7, N-Hydroxy 2-[6-(5-phenylpentanoylamino)-3-azabicyclo[3.1.0]hex-3-yl]pyrimidine-5-carboxamide]
IC50 [1]: < 100 nM | IC50 [2]: 331 to 3300 nM | IC50 [3]: 331 to 3300 nM | IC50 [4]: 331 to 3300 nM
